In article PMC9983021, “Novel GluN2B-Selective NMDA Receptor Negative Allosteric Modulator Possesses Intrinsic Analgesic Properties and Enhances Analgesia of Morphine in a Rodent Tail Flick Pain Model” (ACS Chemical Neuroscience, 2023):

Experiments:
GluN1/GluN2B = GluN1/GluN2B (Rattus norvegicus, UniProt P35439+Q00960)
Beta2 = molecular target: T1, Beta2 (Homo sapiens, UniProt P07550); assay: Radioligand binding assay (NIMH PDSP); conditions: primary screen, quadruplicate
T1 construct: purchased NIMH Psychoactive Drug Screening Program (PDSP)
Method: (§1) Conventional competition and saturation radioligand binding assays were used to determine the affinities of reference standards and EU93-108. Experiments were carried out by the NIMH Psychoactive Drug Screening Program (PDSP) and were performed as previously described.[123]
(§2) The detailed experimental protocols for the radioligand assays are available on the NIMH PDSP website at https://pdsp.unc.edu/pdspweb/content/UNC-CH%20Protocol%20Book.pdf.
(§3) Receptor Mean % Receptor Mean % Receptor Mean %
(§4) Inhibition Inhibition Inhibition
(§5) Supplemental Table S4. Off-Target Actions of EU93-108: Primary GPCR Screen. Cloned human molecular targets were individually expressed and submitted to molecular target-based screening with initial screens performed at a final concentration of 10 µM in quadruplicate. Complete protocols for the assays have been previously published (Besnard J et al. 2012). Where inhibition greater than 50% was measured, secondary screens were performed wherein Ki values were calculated (see Table 4).

SERT = molecular target: T2, SERT (Homo sapiens, UniProt P31645); assay: Radioligand binding assay (NIMH PDSP); conditions: primary screen, quadruplicate
T2 construct: purchased NIMH Psychoactive Drug Screening Program (PDSP)
Method: as §1, §2, §3, §4, §5

5-HT1E = molecular target: T3, 5-HT1E (Homo sapiens, UniProt P28566); assay: Radioligand binding assay (NIMH PDSP); conditions: primary screen, quadruplicate
T3 construct: purchased NIMH Psychoactive Drug Screening Program (PDSP)
Method: as §1, §2, §3, §4, §5

M3 = molecular target: T4, M3 (Homo sapiens, UniProt P20309); assay: Radioligand binding assay (NIMH PDSP); conditions: primary screen, quadruplicate
T4 construct: purchased NIMH Psychoactive Drug Screening Program (PDSP)
Method: as §1, §2, §3, §4, §5

KOR = molecular target: T5, KOR (Homo sapiens, UniProt P41145); assay: Radioligand binding assay (NIMH PDSP); conditions: primary screen, quadruplicate
T5 construct: purchased NIMH Psychoactive Drug Screening Program (PDSP)
Method: as §1, §2, §3, §4, §5

5-HT1B = molecular target: T6, 5-HT1B (Homo sapiens, UniProt P28222); assay: Radioligand binding assay (NIMH PDSP); conditions: primary screen, quadruplicate
T6 construct: purchased NIMH Psychoactive Drug Screening Program (PDSP)
Method: as §1, §2, §3, §4, §5

NET = molecular target: T7, NET (Homo sapiens, UniProt P23975); assay: Radioligand binding assay (NIMH PDSP); conditions: primary screen, quadruplicate
T7 construct: purchased NIMH Psychoactive Drug Screening Program (PDSP)
Method: as §1, §2, §3, §4, §5

5-HT5A = molecular target: T8, 5-HT5A (Homo sapiens, UniProt P47898); assay: Radioligand binding assay (NIMH PDSP); conditions: primary screen, quadruplicate
T8 construct: purchased NIMH Psychoactive Drug Screening Program (PDSP)
Method: as §1, §2, §3, §4, §5

H2 = molecular target: T9, H2 (Homo sapiens, UniProt P25021); assay: Radioligand binding assay (NIMH PDSP); conditions: primary screen, quadruplicate
T9 construct: purchased NIMH Psychoactive Drug Screening Program (PDSP)
Method: as §1, §2, §3, §4, §5

M2 = molecular target: T10, M2 (Homo sapiens, UniProt P08172); assay: Radioligand binding assay (NIMH PDSP); conditions: primary screen, quadruplicate
T10 construct: purchased NIMH Psychoactive Drug Screening Program (PDSP)
Method: as §1, §2, §3, §4, §5

5-HT7A = molecular target: T11, 5-HT7A (Homo sapiens, UniProt P34969); assay: Radioligand binding assay (NIMH PDSP); conditions: primary screen, quadruplicate
T11 construct: purchased NIMH Psychoactive Drug Screening Program (PDSP)
Method: as §1, §2, §3, §4, §5

H4 = molecular target: T12, H4 (Homo sapiens, UniProt Q9H3N8); assay: Radioligand binding assay (NIMH PDSP); conditions: primary screen, quadruplicate
T12 construct: purchased NIMH Psychoactive Drug Screening Program (PDSP)
Method: as §1, §2, §3, §4, §5

Alpha1B = molecular target: T13, Alpha1B (Homo sapiens, UniProt P35368); assay: Radioligand binding assay (NIMH PDSP); conditions: primary screen, quadruplicate
T13 construct: purchased NIMH Psychoactive Drug Screening Program (PDSP)
Method: as §1, §2, §3, §4, §5

5-HT1A = molecular target: T14, 5-HT1A (Homo sapiens, UniProt P08908); assay: Radioligand binding assay (NIMH PDSP); conditions: primary screen, quadruplicate
T14 construct: purchased NIMH Psychoactive Drug Screening Program (PDSP)
Method: as §1, §2, §3, §4, §5

M5 = molecular target: T15, M5 (Homo sapiens, UniProt P08912); assay: Radioligand binding assay (NIMH PDSP); conditions: primary screen, quadruplicate
T15 construct: purchased NIMH Psychoactive Drug Screening Program (PDSP)
Method: as §1, §2, §3, §4, §5

MOR = molecular target: T16, MOR (Homo sapiens, UniProt P35372); assay: Radioligand binding assay (NIMH PDSP); conditions: primary screen, quadruplicate
T16 construct: purchased NIMH Psychoactive Drug Screening Program (PDSP)
Method: as §1, §2, §3, §4, §5

D4 = molecular target: T17, D4 (Homo sapiens, UniProt P21917); assay: Radioligand binding assay (NIMH PDSP); conditions: primary screen, quadruplicate
T17 construct: purchased NIMH Psychoactive Drug Screening Program (PDSP)
Method: as §1, §2, §3, §4, §5

5-HT6 = molecular target: T18, 5-HT6 (Homo sapiens, UniProt P50406); assay: Radioligand binding assay (NIMH PDSP); conditions: primary screen, quadruplicate
T18 construct: purchased NIMH Psychoactive Drug Screening Program (PDSP)
Method: as §1, §2, §3, §4, §5

D1 = molecular target: T19, D1 (Homo sapiens, UniProt P21728); assay: Radioligand binding assay (NIMH PDSP); conditions: primary screen, quadruplicate
T19 construct: purchased NIMH Psychoactive Drug Screening Program (PDSP)
Method: as §1, §2, §3, §4, §5

5-HT3 = molecular target: T20, 5-HT3 (Homo sapiens, UniProt P46098); assay: Radioligand binding assay (NIMH PDSP); conditions: primary screen, quadruplicate
T20 construct: purchased NIMH Psychoactive Drug Screening Program (PDSP)
Method: as §1, §2, §3, §4, §5

Beta1 = molecular target: T21, Beta1 (Homo sapiens, UniProt P08588); assay: Radioligand binding assay (NIMH PDSP); conditions: primary screen, quadruplicate
T21 construct: purchased NIMH Psychoactive Drug Screening Program (PDSP)
Method: as §1, §2, §3, §4, §5

M4 = molecular target: T22, M4 (Homo sapiens, UniProt P08173); assay: Radioligand binding assay (NIMH PDSP); conditions: primary screen, quadruplicate
T22 construct: purchased NIMH Psychoactive Drug Screening Program (PDSP)
Method: as §1, §2, §3, §4, §5

M1 = molecular target: T23, M1 (Homo sapiens, UniProt P11229); assay: Radioligand binding assay (NIMH PDSP); conditions: primary screen, quadruplicate
T23 construct: purchased NIMH Psychoactive Drug Screening Program (PDSP)
Method: as §1, §2, §3, §4, §5

Sigma2 = molecular target: T24, Sigma2 (Homo sapiens, UniProt Q5BJF2); assay: Radioligand binding assay (NIMH PDSP); conditions: primary screen, quadruplicate
T24 construct: purchased NIMH Psychoactive Drug Screening Program (PDSP)
Method: as §1, §2, §3, §4, §5

5-HT1D = molecular target: T25, 5-HT1D (Homo sapiens, UniProt P28221); assay: Radioligand binding assay (NIMH PDSP); conditions: primary screen, quadruplicate
T25 construct: purchased NIMH Psychoactive Drug Screening Program (PDSP)
Method: as §1, §2, §3, §4, §5

DAT = molecular target: T26, DAT (Homo sapiens, UniProt Q01959); assay: Radioligand binding assay (NIMH PDSP); conditions: primary screen, quadruplicate
T26 construct: purchased NIMH Psychoactive Drug Screening Program (PDSP)
Method: as §1, §2, §3, §4, §5

D2 = molecular target: T27, D2 (Homo sapiens, UniProt P14416); assay: Radioligand binding assay (NIMH PDSP); conditions: primary screen, quadruplicate
T27 construct: purchased NIMH Psychoactive Drug Screening Program (PDSP)
Method: as §1, §2, §3, §4, §5

H3 = molecular target: T28, H3 (Homo sapiens, UniProt Q9Y5N1); assay: Radioligand binding assay (NIMH PDSP); conditions: primary screen, quadruplicate
T28 construct: purchased NIMH Psychoactive Drug Screening Program (PDSP)
Method: as §1, §2, §3, §4, §5

BZP Rat Brain Site = assay: Radioligand binding assay (NIMH PDSP); conditions: primary screen, 10 µM, quadruplicate
Method: as §1, §2, §3, §4, §5

Beta3 = molecular target: T29, Beta3 (Homo sapiens, UniProt P13945); assay: Radioligand binding assay (NIMH PDSP); conditions: primary screen, quadruplicate
T29 construct: purchased NIMH Psychoactive Drug Screening Program (PDSP)
Method: as §1, §2, §3, §4, §5

DOR = molecular target: T30, DOR (Homo sapiens, UniProt P41143); assay: Radioligand binding assay (NIMH PDSP); conditions: primary screen, quadruplicate
T30 construct: purchased NIMH Psychoactive Drug Screening Program (PDSP)
Method: as §1, §2, §3, §4, §5

D5 = molecular target: T31, D5 (Homo sapiens, UniProt P21918); assay: Radioligand binding assay (NIMH PDSP); conditions: primary screen, quadruplicate
T31 construct: purchased NIMH Psychoactive Drug Screening Program (PDSP)
Method: as §1, §2, §3, §4, §5

Sequence of GluN1/GluN2B (Q00960 27-1482, other chains not shown): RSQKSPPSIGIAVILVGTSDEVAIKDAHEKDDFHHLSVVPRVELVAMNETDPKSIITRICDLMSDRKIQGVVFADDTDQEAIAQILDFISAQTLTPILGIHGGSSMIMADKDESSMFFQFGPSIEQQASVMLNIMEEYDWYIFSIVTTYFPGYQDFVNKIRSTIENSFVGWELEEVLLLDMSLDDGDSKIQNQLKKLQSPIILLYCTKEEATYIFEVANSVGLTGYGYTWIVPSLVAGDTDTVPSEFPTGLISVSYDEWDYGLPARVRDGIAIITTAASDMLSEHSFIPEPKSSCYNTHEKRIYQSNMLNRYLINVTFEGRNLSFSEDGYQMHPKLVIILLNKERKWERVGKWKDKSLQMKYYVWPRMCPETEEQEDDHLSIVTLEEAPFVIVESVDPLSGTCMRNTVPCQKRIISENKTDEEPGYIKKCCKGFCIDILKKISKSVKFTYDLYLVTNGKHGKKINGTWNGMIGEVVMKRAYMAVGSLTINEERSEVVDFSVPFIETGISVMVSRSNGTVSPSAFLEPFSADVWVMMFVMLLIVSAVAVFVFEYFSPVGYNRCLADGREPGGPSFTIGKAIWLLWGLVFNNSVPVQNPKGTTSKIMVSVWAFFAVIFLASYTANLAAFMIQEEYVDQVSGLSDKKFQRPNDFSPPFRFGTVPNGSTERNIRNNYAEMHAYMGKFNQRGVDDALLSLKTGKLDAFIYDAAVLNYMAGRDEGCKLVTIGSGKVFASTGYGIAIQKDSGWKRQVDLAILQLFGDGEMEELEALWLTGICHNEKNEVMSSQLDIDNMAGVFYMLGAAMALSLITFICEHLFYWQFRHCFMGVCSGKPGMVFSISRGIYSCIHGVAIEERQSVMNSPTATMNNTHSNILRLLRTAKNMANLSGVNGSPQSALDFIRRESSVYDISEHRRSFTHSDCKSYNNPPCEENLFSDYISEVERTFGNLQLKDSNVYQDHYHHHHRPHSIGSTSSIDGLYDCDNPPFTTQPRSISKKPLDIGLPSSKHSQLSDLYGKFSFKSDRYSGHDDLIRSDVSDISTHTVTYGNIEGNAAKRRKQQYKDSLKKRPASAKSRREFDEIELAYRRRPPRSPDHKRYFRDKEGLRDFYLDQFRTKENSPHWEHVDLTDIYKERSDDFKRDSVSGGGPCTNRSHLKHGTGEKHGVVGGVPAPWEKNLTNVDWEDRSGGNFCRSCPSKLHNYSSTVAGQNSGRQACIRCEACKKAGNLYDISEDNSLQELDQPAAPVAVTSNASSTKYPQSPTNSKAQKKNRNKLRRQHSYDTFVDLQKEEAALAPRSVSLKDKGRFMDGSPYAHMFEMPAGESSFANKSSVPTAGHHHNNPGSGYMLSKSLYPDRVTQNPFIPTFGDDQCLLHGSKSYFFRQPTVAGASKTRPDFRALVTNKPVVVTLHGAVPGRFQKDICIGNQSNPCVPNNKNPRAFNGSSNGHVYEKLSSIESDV
T3 sequence (P28566 whole entry): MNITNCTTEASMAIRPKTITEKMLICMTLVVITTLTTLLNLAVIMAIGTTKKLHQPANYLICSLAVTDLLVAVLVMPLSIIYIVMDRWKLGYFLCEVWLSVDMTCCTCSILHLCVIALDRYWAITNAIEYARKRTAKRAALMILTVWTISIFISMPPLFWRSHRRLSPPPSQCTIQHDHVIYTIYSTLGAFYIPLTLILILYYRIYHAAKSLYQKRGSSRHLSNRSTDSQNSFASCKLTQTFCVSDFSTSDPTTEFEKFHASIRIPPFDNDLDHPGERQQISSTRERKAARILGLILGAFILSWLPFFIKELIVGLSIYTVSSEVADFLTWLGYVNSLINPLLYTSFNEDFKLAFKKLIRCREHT
T7 sequence (P23975 whole entry): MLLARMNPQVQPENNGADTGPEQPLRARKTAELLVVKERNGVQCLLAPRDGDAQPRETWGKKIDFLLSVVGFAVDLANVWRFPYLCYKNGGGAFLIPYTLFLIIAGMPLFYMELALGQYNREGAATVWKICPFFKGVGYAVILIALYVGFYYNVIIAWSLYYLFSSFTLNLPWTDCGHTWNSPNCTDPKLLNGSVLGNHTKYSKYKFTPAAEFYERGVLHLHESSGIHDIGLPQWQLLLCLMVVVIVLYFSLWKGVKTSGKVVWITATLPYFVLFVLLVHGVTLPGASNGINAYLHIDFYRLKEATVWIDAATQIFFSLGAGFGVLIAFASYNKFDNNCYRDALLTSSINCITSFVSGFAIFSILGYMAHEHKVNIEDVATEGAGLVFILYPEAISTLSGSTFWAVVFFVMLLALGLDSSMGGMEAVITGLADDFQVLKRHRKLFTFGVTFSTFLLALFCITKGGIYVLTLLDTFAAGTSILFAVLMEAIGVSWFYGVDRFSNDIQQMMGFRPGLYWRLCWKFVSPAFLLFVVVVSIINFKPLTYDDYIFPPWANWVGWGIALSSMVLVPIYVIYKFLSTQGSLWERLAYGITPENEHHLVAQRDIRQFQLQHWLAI
T10 sequence (P08172 whole entry): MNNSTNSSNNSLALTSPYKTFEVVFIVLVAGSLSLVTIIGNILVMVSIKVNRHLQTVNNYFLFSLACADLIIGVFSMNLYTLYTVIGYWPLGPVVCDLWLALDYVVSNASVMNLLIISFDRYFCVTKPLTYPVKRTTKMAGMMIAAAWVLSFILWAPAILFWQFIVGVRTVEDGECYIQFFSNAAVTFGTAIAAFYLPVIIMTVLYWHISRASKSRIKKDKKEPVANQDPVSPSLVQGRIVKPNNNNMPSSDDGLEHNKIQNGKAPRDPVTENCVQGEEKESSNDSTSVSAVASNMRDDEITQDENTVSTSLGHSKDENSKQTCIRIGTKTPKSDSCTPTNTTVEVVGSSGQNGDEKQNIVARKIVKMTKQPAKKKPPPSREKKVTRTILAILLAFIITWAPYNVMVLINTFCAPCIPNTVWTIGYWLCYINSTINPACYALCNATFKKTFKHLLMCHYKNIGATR
T9 sequence (P25021 whole entry): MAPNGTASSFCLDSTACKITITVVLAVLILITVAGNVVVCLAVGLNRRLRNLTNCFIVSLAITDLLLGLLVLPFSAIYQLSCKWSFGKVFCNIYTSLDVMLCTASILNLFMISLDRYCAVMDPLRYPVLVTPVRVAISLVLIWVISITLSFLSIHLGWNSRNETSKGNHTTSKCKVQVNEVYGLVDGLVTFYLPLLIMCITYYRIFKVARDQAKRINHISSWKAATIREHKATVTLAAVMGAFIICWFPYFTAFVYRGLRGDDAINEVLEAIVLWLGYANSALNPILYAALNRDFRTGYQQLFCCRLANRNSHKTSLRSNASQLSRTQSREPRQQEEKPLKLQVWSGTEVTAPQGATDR
T11 sequence (P34969 1-445 isoform P34969-2): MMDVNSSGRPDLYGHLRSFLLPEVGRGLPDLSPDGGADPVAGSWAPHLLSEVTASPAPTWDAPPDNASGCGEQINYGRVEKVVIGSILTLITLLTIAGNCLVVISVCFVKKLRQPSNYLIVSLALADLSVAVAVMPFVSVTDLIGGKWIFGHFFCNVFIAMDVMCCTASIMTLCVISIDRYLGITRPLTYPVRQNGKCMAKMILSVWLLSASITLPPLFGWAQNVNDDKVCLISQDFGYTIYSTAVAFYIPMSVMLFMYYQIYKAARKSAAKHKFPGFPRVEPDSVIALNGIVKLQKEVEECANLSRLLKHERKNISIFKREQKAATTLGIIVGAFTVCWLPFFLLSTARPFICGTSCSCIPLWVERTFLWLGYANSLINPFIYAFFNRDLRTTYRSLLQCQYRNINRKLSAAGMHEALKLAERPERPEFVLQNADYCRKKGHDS
T1 sequence (P07550 whole entry): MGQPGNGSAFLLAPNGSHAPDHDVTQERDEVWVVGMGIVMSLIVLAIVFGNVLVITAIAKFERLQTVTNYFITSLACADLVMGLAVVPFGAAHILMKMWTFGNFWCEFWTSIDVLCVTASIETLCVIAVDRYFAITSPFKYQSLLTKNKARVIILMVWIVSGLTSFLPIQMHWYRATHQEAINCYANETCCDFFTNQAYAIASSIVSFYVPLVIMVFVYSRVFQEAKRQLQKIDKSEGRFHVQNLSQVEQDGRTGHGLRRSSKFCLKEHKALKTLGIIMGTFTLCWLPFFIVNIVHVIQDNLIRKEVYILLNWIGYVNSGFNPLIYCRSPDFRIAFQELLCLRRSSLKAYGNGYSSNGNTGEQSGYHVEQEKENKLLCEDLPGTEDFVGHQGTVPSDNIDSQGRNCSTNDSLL
T5 sequence (P41145 whole entry): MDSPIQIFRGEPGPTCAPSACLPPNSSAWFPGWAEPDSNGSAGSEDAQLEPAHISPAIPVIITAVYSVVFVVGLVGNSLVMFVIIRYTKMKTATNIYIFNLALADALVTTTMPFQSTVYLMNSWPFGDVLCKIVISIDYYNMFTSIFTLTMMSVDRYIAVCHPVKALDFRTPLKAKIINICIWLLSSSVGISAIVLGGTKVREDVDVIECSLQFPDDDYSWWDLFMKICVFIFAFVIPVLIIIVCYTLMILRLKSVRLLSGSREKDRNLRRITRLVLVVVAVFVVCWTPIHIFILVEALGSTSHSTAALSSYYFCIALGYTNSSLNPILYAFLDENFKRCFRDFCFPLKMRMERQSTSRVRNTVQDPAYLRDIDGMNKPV
T21 sequence (P08588 whole entry): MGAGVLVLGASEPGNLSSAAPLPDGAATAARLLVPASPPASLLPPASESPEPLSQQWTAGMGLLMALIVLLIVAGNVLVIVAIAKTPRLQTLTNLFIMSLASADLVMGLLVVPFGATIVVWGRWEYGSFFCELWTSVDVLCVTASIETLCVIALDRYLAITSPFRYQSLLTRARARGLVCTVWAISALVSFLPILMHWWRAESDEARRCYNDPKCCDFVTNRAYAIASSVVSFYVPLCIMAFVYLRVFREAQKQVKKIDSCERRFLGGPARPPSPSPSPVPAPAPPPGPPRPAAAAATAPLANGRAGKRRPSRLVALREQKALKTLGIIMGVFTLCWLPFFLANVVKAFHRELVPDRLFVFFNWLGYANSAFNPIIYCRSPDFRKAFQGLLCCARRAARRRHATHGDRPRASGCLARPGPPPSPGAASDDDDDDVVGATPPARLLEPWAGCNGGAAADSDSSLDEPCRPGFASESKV

In the case of `CS(=O)(=O)Nc1ccc(OC[C@@H](O)CN2CCN(c3ccc(F)c(F)c3)CC2)cc1` [EU93-108, (S)-N-(4-(3-(4-(3,4-Difluorophenyl)piperazin-1-yl)-2-hydroxypropoxy)phenyl)methanesulfonamide], the “% Control 10 µM EU93-108” value (GluN1/GluN2B; agonist 100 µM glutamate, 30 µM glycine, mean ± SEM) is reported as 13.2 ± 6.1%, the “inhibition of GluN2B relative to the other NMDAR subunits” value (GluN1/GluN2B; at 10 μM) is reported as “approximately 18 fold” and the inhibition at 10 µM (GluN1/GluN2B; read-out: Mean % Inhibition by 10 μM EU93-108) is reported as 86.8 ± 6.1%. The inhibition at 10 µM (Beta2) was 13.7%, the inhibition at 10 µM (SERT) was 15.1% and the inhibition at 10 µM (5-HT1E) was 1.68%. For the same molecule, the inhibition at 10 µM (M3) was 9.26%, the inhibition at 10 µM (KOR) was -3.1% and the inhibition at 10 µM (5-HT1B) was -7.29%. For the same molecule, the inhibition at 10 µM (NET) was 12.5%, the inhibition at 10 µM (5-HT5A) was 13% and the inhibition at 10 µM (H2) was 13.7%. It also gave an inhibition at 10 µM (M2) of -23.1%, an inhibition at 10 µM (5-HT7A) of 55.9% and an inhibition at 10 µM (H4) of 2.12%. For the same molecule, the inhibition at 10 µM (Alpha1B) was 5.09%, the inhibition at 10 µM (5-HT1A) was 22.8% and the inhibition at 10 µM (M5) was -0.11%. For the same molecule, the inhibition at 10 µM (MOR) was 4.04%, the inhibition at 10 µM (D4) was 11.4% and the inhibition at 10 µM (5-HT6) was 25.3%. The inhibition at 10 µM (D1) was 24.7%, the inhibition at 10 µM (5-HT3) was 0.87% and the inhibition at 10 µM (Beta1) was 29.1%. For the same molecule, the inhibition at 10 µM (M4) was 51.4%, the inhibition at 10 µM (M1) was -18.1% and the inhibition at 10 µM (Sigma2) was 47.2%. It also gave an inhibition at 10 µM (5-HT1D) of 39.2%, an inhibition at 10 µM (DAT) of -7.01% and an inhibition at 10 µM (D2) of 23.1%. For the same molecule, the inhibition at 10 µM (H3) was 22.7%, the “Mean % Inhibition” value (BZP Rat Brain Site) was 14.68% and the inhibition at 10 µM (Beta3) was -10.5%. The inhibition at 10 µM (DOR) was -8.82% and the inhibition at 10 µM (D5) was 8.94%.
